The values below come from patent US20150231199A1, “PEPTIDES AND THEIR USES” (priority 2012, published 2015).

≈ marks a conversion by molar mass, not a printed value. Marks after values point to notes of the source that are not given here. Positions of bridges follow the written chain, without caps; N, C: chain ends. Residues, ends and D or L forms follow the SMILES beside them. Chains are numbered I, II in the order given. *: point of attachment. Palmitoyl = CCCCCCCCCCCCCCCC(=O)*; Decanoyl = CCCCCCCCCC(=O)*

In one series the test system is Pseudomonas aeruginosa. The format is cell-based. As for the experimental part: (§1) V2-dimer and all lipopeptides (FIG. 1A) used in this study were purchased from Mimotopes. All peptides were prepared by dissolving in sterile water to make 1000 μg/mL stock solutions. Minimum Inhibitory Concentration (MIC) determination was carried out in Mueller Hinton Broth (MHB) using the broth macro-dilution method as described by the Clinical and Laboratory Standards Institute (CLSI). Then, cation-adjusted MHB (CA-MHB) was used to prepare serial two fold dilutions of the compounds in test tubes. The concentration of the inoculums suspension was also adjusted to approximately 5×10^5 Colony Forming Units (CFU)/mL using MHB. Bacteria were incubated with the compounds for 24 hours at 35° C. prior to reading. In this study, Gram-positive strains used were Staphylococcus aureus DM4001 and Methicillin-resistant Staphylococcus aureus (MRSA) DM9808. Gram-negative strains used were Klebsiella pneumoniae DM4299, Pseudomonas aeruginosa ATCC23155 and Escherichia coli ATCC27922.
(§2) Methods used are as described in Example 1 above.

The test system of series [1] is Methicillin-resistant Staphylococcus aureus (MRSA). The format is cell-based. The method, then:
as §1, §2

A further series deals with Staphylococcus aureus. It counts as cell-based. As for the experimental part: as §1, §2
Series [2] has as its system Escherichia coli ATCC27922. The format is cell-based. As for the experimental part:
as §1

Series [3] concerns Klebsiella pneumoniae DM4299. The format is cell-based. The method, then:
as §1

The nature of the next series: in vitro. The format is cell-based, rabbit. The following applies: New Zealand white, rabbit, pH 7. The method, then: (§3) Fresh red blood cells (RBCs) of New Zealand white rabbits were used for this experiment. The RBCs obtained were centrifuged at 3000 rpm for 10 min. Supernatant was removed and washed twice with sterile PBS Buffer (20 mM, 100 mM NaCl, pH 7). The RBCs were further diluted to 8% stock solution in PBS. Peptides were dissolved in PBS with desired stock concentrations. When compounds were mixed with RBCs, desired concentration of 4% RBCs was obtained. For C14V2D and C16V2D, they were dissolved in Dimethylformamide ([…]; DMF) with desired stock concentrations. When compounds were mixed with RBCs, desired concentration of 4% RBCs and 0.5% DMF was obtained. DMF concentration of <1% was used as it had negligible hemolytic activity on RBCs. The mixtures were added to 1.5 mL centrifuge tubes and incubated at 37° C. for 1 h. After incubation, the blood was centrifuged at 3000 rpm for 3 min at 4° C. 100 μL of the supernatant was transferred into transparent 96-well plate. The absorbance was measured at 576 nm using a microplate reader (TECAN Infinite 200M Pro). 2% Triton X-100 was used as positive control. PBS was used as negative controls. The amount of hemoglobin released was calculated using the following equation: […]

Series [4] relates to red blood cells (RBCs) of New Zealand white rabbits. As to the kind of experiment: in vitro. It counts as cell-based, rabbit. The method, then:
as §3

The next series concerns S. aureus (DM4001). The series is described as follows: Membrane damage, LIVE/DEAD BacLight assay. The format is cell-based, Staphylococcus aureus. The conditions noted are these: FIG. 7. The method, then: The extent of bacterial membrane damage was assessed using LIVE/DEAD BacLight Bacterial Viability Kit (Molecular Probes, Invitrogen) which utilises both SYTO 9 green-fluorescent nucleic acid stain and the red-fluorescent nucleic acid stain, propidium iodide in their different ability to penetrate healthy bacterial cells. SYTO9 dye could penetrate bacteria with intact and damaged membrane but propidium iodide could only penetrate bacteria with damaged bacteria thereby causing a reduction in the SYTO 9 stain's fluorescence when both dyes are present. Thus, bacteria with intact cell membranes stain fluorescent green whereas bacteria with damaged membranes stain fluorescent red. Briefly, clinical isolate S. aureus (DM4001) was collected at an early exponential growth phase and washed twice with 0.9% saline solution (live culture). A portion of the culture was resuspended in 70% 2-propanol to prepare dead culture with fully permeabilised membrane. […] Using TECAN infinite 200 microplate reader, the wavelength for excitation was fixed at 485 nm to obtain the emission spectrum from 500 nm to 700 nm. The green to red ratio (G/R) was determined using the following formula: [formula] % of membrane damage was quantified using a G/R ratio standard curve generated using bacterial mixture of 0, 10%, 50%, 90% and 100% live culture suspension. […]

Series [5] in a line: Dissolution in PBS for hemolytic assay. The format is physicochemical. The method, then:
as §3

The subject of series [6] is P. aeruginosa. As to the kind of experiment: Time-kill kinetics assay. The format is cell-based, Pseudomonas aeruginosa. The conditions noted are these: both Pseudomonas strains at 1× and 2×MIC; compared with B2088; FIG. 13. The method, then:
The kinetics of bactericidal action was performed by the assay reported before. Briefly, few colonies of overnight grown P. aeruginosa strains were collected from tryptic soy agar plate and suspended US pharmacopeia phosphate buffer (pH 7.2). The suspension was adjusted to an initial inoculum of 10^6 CFU/mL and incubated with various concentrations of B2088 and B2088—99 at 35° C. 0.1 mL aliquots were withdrawn at various time intervals, diluted […] fold using the same buffer, plated on tryptic soy agar plates and incubated at 35° C. The colonies were counted after 24 h incubation and expressed as CFU/mL. Buffer without peptides served as a positive control and % bacterial viability is estimated using the following equation:
Bacterial viability=1−(CFU/mL)peptide/(CFU/mL)control*100

For series [7], the system named is P. aeruginosa. The series is described as follows: Bacterial viability assay (ED50). The format is cell-based, Pseudomonas aeruginosa. The conditions noted are these: P. aeruginosa ATCC 9027 and ATCC 27853; FIG. 12. As for the experimental part:
Cell viability was conducted for two Gram-negative bacteria (Pa 9027 and Pa 27853). The cultures were grown overnight in TS agar and a few isolated colonies were inoculated to achieve a turbidity equivalent to 0.5 McFarland standard. The cell concentration was adjusted to […] with 10 mM phosphate buffer and separated into different tubes to get final concentration of 10^5 CFU/ml. The peptides were added to the individual tubes to obtain concentrations of ⅛ MIC, ¼ MIC, ½ MIC, 1 MIC, 2 MIC and 4 MIC. The tubes were incubated at 37° C. for 22 h. Serial dilution was performed and 100 uL of the suspension was aliquot into MHA plate. The plates were incubated for 24 h at 37° C. for colony counting. Positive control was performed at 0 h and 22 h.

For another series, the system named is Klebsiella pneumoniae. The format is cell-based. The following applies: 24 h. As for the experimental part: The minimum inhibitory concentration (MIC) was determined using the broth microdilution method. Bacterial cells (shown in Table 6) are grown in Mueller Hinton Broth (MHB) overnight. 100 μL of adjusted inoculum in MHB is added to 100 μL of each dilution of peptide or antibiotics dissolved in the broth, so as to yield a final cell density of 10^5 to 10^6 cfu/mL in each well. The plates were incubated at 35° C. for 24 h and the absorbance at 600 nm (OD600) was monitored every 30 minutes. A positive control well contained the broth and organisms (no peptides/antibiotics), and a negative control tube contains only the broth. The MIC of peptides for each clinical isolate or reference organism was recorded as the lowest concentration of peptide/antibiotic that inhibited visible growth of the test organism. To study the effect of Mg2+ on MIC of branched peptides, the concentration of MgCl2 was varied in MHB and the MIC was determined as before.

A further series deals with P. aeruginosa ATCC 9027. The series is described as follows: Outer membrane (OM) permeability assay (NPN). The format is cell-based, Pseudomonas aeruginosa. The following applies: FIG. 14. As for the experimental part:
To probe the OM permeability of peptides, a membrane impermeable probe N-phenyl-1-naphthyl amine (NPN) was used in the present study. The overnight cultured P. aeruginosa ATCC 9027 cells were harvested by centrifugation at 3000 rpm, 4° C. The resulting pellet was washed twice and resuspended in 5 mM HEPES buffer (pH 7.2) to OD600 of 0.4. The cells were placed in a 10 mm stirred cuvette and NPN was added to a final concentration of 10 μM. Appropriate concentrations of B2088 was added and the increase in fluorescence intensity was monitored on a Quanta Master fluorescence spectrophotometer (Photon Technology International, New Jersey, USA). The excitation and emission wavelengths were set at 350 and 410 nm with slid widths at 2 and 5 nm, respectively. The % NPN uptake was calculated relative to increase in NPN fluorescence intensity after the addition of 50 μM polymyxin B.

`CCCCCCCCCC(=O)N[C@@H](CCCNC(=N)N)C(=O)NCC(=O)N[C@@H](CCCNC(=N)N)C(=O)N[C@@H](CCCCN)C(=O)N[C@H](C(=O)N[C@H](C(=O)N[C@@H](CCCNC(=N)N)C(=O)N[C@@H](CCCNC(=N)N)C(=O)NCCCC[C@H](NC(=O)[C@H](CCCNC(=N)N)NC(=O)[C@H](CCCNC(=N)N)NC(=O)[C@@H](NC(=O)[C@@H](NC(=O)[C@H](CCCCN)NC(=O)[C@H](CCCNC(=N)N)NC(=O)CNC(=O)[C@H](CCCNC(=N)N)NC(=O)CCCCCCCCC)C(C)C)C(C)C)C(=O)N[C@@H](CCCCN)C(=O)O)C(C)C)C(C)C` [Peptide C10-V2D, (C9H19—CO—NH—RGRKVVRR)2KK] (I: Decanoyl-RGRKVVRRKK-OH / II: Decanoyl-RGRKVVRR; amide I:9-II:C): the MIC (usually the lowest concentration found to suppress growth) with Pseudomonas aeruginosa is 2.40 µM (≈ 6.24 µg/mL); in series [1], 1.20 µM (≈ 3.12 µg/mL); with Staphylococcus aureus it was 2.40 µM (≈ 6.24 µg/mL); in [2], 4.80 µM (≈ 12.5 µg/mL); in series [3], 2.40 µM (≈ 6.24 µg/mL). In “in vitro”, the hemolysis at 1 h, 20 mg/mL was 3.3%. Moreover, the HC10 in [4] was >2000^a ug/mL.

With `CCCCCCCCCCCCCCCC(=O)N[C@@H](CCCNC(=N)N)C(=O)NCC(=O)N[C@@H](CCCNC(=N)N)C(=O)N[C@@H](CCCCN)C(=O)N[C@H](C(=O)N[C@H](C(=O)NCCCC[C@H](NC(=O)[C@@H](NC(=O)[C@@H](NC(=O)[C@H](CCCCN)NC(=O)[C@H](CCCNC(=N)N)NC(=O)CNC(=O)[C@H](CCCNC(=N)N)NC(=O)CCCCCCCCCCCCCCC)C(C)C)C(C)C)C(=O)N[C@@H](CCCCN)C(=O)O)C(C)C)C(C)C` [Peptide C16-V2D, (C15H31—CO—NH—RGRKVV)2KK] (I: Palmitoyl-RGRKVVKK-OH / II: Palmitoyl-RGRKVV; amide I:7-II:C; C-terminus assumed), in the series with S. aureus (DM4001), the membrane integrity entry is on record as “reduced membrane integrity”. The MIC against Pseudomonas aeruginosa is greater than 36.13 µM; in series [1], 18.07 µM (≈ 38.7 µg/mL); with Staphylococcus aureus it was 36.13 µM (≈ 77.4 µg/mL); in series [2], 9.03 µM (≈ 19.4 µg/mL); in series [3] it was greater than 36.13 µM. The “dissolution in PBS” value in series [5] is recorded as “^cValue in DMF. C16V2D could not dissolve in PBS”. The HC10 result in [4] was “^c114.0 ± 37.9 ug/mL”.

Take `N=C(N)NCCC[C@H](NC(=O)CNC(=O)CNC(=O)[C@H](CCCCN)NC(=O)[C@H](CCCNC(=N)N)NC(=O)CNC(=O)[C@@H](N)CCCNC(=N)N)C(=O)N[C@@H](CCCNC(=N)N)C(=O)NCCCC[C@H](NC(=O)[C@H](CCCNC(=N)N)NC(=O)[C@H](CCCNC(=N)N)NC(=O)CNC(=O)CNC(=O)[C@H](CCCCN)NC(=O)[C@H](CCCNC(=N)N)NC(=O)CNC(=O)[C@@H](N)CCCNC(=N)N)C(=O)N[C@@H](CCCCN)C(=O)O` [Peptide G2D, (RGRKGGRR)2KK] (I: H-RGRKGGRRKK-OH / II: H-RGRKGGRR; amide I:9-II:C; N-terminus and C-terminus assumed): in the series with P. aeruginosa [6], the kill kinetics result is on record as “faster kill kinetics”. Moreover, the minimal inhibitory concentration (MIC) was 2.94 µM (≈ 6.24 µg/mL) in the series with Pseudomonas aeruginosa; 5.89 µM (≈ 12.5 µg/mL) in series [1]; 5.66 µM (≈ 12 µg/mL) in the series on Staphylococcus aureus; 2.9 µM (≈ 6.16 µg/mL) against Klebsiella pneumoniae; 2.94 µM (≈ 6.24 µg/mL) in series [3]. Further, the “ED50 compared with B2088” value in the series on P. aeruginosa [7] is on record as “two times lower”. Moreover, in the series with P. aeruginosa ATCC 9027, the “PC50 (concentration for 50% increase in NPN fluorescence intensity) compared with B2088” value is “higher”.
